Assay results as given in patent publication US20160369307A1, “METHOD OF INCREASING BIOMASS AND LIPID CONTENT IN A MICRO-ORGANISM AND A GENETICALLY MODIFIED MICRO-ORGANISM EXHIBITING ENHANCED AUTOPHAGY” (RELIANCE INDUSTRIES LIMITED, priority 2014, published 2016).
Where a SMILES comes first, the peptide text is derived from it. The star is where a group is joined. Cbz = O=C(OCc1ccccc1)*; CH2F = FC*

Columns and labels:
Chlorella sorokiniana [1] = assay: Recovery of Chlorella sorokiniana cultures after UV exposure with z-vad-fmk; assay type: cell-based
Procedure: 1×10^6 cells/ml of Chlorella sorokiniana were grown for three days in Tris-Acetate-Phosphate (TAP) medium and then exposed to UV at 250000 μJ/cm^2 for one minute using CL-1000 UV crosslinker. Immediately after UV exposure, 25 μM Z-vad-fmk was added to the TAP medium. The cultures were kept in the dark for 24 hours. Cultures were then exposed to light of 2000 lux for 12 hours followed by 12 hours of darkness.
FIG. 1B graphically represents the optical density at 750 nm of the Control cultures versus the optical density of the cultures treated with z-vad-fmk on the 13th day after UV exposure. From these figures it is clear that z-vad-fmk induced autophagy in the Chlorella sorokiniana cells helping the cells to recover from UV exposure. […] Thus, it can be concluded that even in environmental stress conditions like exposure to UV, treatment of the algal cells with z-vad-fmk prevents cell death, increases the biomass and lipid content of the algal cells, and concomitantly yields an increased amount of commercially valuable products like oils which are known to be produced by the algal cells.

Chlorella sorokiniana [2] = assay: Cell count of Chlorella sorokiniana under salinity stress with LiCl; assay type: cell-based; settings: for Cell Density at Day 0: Day 0, day of salinity exposure (baseline); for Cell Density at Day 4: Day 4 of salinity stress
Procedure: 5mM LiCl was added to the TAP medium in the Experimental plates, but not in the Control. […]
Thus, it can be concluded that even in environmental stress conditions like exposure to salinity, treatment of the algal cells with LiCl prevents cll death, increases the biomass and lipid content of the algal cells, and concomitantly yields an increased amount of commercially valuable products like oils which are known to be produced by the algal cells.

[3] = TAP + 0.6% Salinity + 5 mM LiCl
[4] = TAP + 1.2% Salinity + 5 mM LiCl

COC(=O)C[C@H](NC(=O)[C@H](C)NC(=O)[C@@H](NC(=O)OCc1ccccc1)C(C)C)C(=O)CF [z-vad-fmk] (Cbz-Val-Ala-Asp(OMe)-CH2F)
Revival of bleached cultures after UV exposure (Chlorella sorokiniana [1]; 25 μM added to TAP medium immediately after UV 250000 μJ/cm^2 for one minute, 10 days): only z-vad-fmk treated cultures were seen to revive after 10 days | Culture viability (plates, FIG. 1A) after UV exposure (Chlorella sorokiniana [1]; 25 μM, 13 days after UV exposure, versus Control plates): only the z-vad-fmk treated plates show viable cultures

[Cl-].[Li+] [LiCl]
Cell counts versus Control after salinity stress (FIG. 2) (Chlorella sorokiniana [2]; 5 mM LiCl, after 4 days of salinity stress exposure): higher cell counts | Cell Density at Day 0 (Chlorella sorokiniana [2]; [3]): 2.6 × 10^6 cells/ml | Cell Density at Day 4 (Chlorella sorokiniana [2]; [3]): 6.57 × 10^6 cells/ml | Cell Density at Day 0 (Chlorella sorokiniana [2]; [4]): 2.6 × 10^6 cells/ml | Cell Density at Day 4 (Chlorella sorokiniana [2]; [4]): 7.22 × 10^6 cells/ml
